The kinase profiling compilation of Christmann-Franck et al. (2016)

Legend:
Assay in all cases: radiometric filter-binding kinase assay
BTK (human) = BTK (human) (UniProt Q06187)
CDK2 CCNA2 (human) = CDK2 CCNA2 (human) (UniProt P20248+P24941)
CHEK1 (human) = CHEK1 (human) (UniProt O14757)
CSNK2A1 (human) = CSNK2A1 (human) (UniProt P68400)
DAPK1 (human) = DAPK1 (human) (UniProt P53355)
EEF2K (human) = EEF2K (human) (UniProt O00418)
EPHA4 (human) = EPHA4 (human) (UniProt P54764)
EPHB1 (human) = EPHB1 (human) (UniProt P54762)
EPHB4 (human) = EPHB4 (human) (UniProt P54760)
GCK (human) = GCK (human) (UniProt Q12851)
IKBKB (human) = IKBKB (human) (UniProt O14920)
INSRR (human) = INSRR (human) (UniProt P14616)
MAP2K1 (human) = MAP2K1 (human) (UniProt Q02750)
MAP2K2 (human) = MAP2K2 (human) (UniProt P36507)
MAP3K5 (human) = MAP3K5 (human) (UniProt Q99683)
MAP3K9 (human) = MAP3K9 (human) (UniProt P80192)
MAPK9 (human) = MAPK9 (human) (UniProt P45984)
MAPKAPK2 (human) = MAPKAPK2 (human) (UniProt P49137)
MARK3 (human) = MARK3 (human) (UniProt P27448)
MARK4 (human) = MARK4 (human) (UniProt Q96L34)
MKNK2 (human) = MKNK2 (human) (UniProt Q9HBH9)
MYLK (human) = MYLK (human) (UniProt Q15746)
NEK6 (human) = NEK6 (human) (UniProt Q9HC98)
[1] = system: PAK2 (human), Q13177 [T402E]
PAK6 (human) = PAK6 (human) (UniProt Q9NQU5)
PIM1 (human) = PIM1 (human) (UniProt P11309)
PIM2 (human) = PIM2 (human) (UniProt Q9P1W9)
PIM3 (human) = PIM3 (human) (UniProt Q86V86)
PKN2 (human) = PKN2 (human) (UniProt Q16513)
RPS6KA5 KD1 KD2 (human) = RPS6KA5 KD1 KD2 (human) (UniProt O75582)
[2] = system: RPS6KB1 (human), P23443 [T412E]
SRPK1 (human) = SRPK1 (human) (UniProt Q96SB4)
STK3 (human) = STK3 (human) (UniProt Q13188)
TBK1 (human) = TBK1 (human) (UniProt Q9UHD2)
TTK (human) = TTK (human) (UniProt P33981)
YES1 (human) = YES1 (human) (UniProt P07947)

Chain of PIM1 (human) (P11309 whole entry, looked up): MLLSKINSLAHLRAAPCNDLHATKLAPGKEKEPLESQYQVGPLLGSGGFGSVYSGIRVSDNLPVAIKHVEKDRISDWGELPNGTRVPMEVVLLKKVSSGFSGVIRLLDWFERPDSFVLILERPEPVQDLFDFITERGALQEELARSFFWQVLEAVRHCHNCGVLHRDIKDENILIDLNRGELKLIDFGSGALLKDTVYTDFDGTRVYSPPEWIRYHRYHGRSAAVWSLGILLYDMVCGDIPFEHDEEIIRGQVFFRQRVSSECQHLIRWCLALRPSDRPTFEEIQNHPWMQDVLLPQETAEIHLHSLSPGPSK
Chain of PAK2 (human), Q13177 [T402E] (Q13177 whole entry T402E, looked up): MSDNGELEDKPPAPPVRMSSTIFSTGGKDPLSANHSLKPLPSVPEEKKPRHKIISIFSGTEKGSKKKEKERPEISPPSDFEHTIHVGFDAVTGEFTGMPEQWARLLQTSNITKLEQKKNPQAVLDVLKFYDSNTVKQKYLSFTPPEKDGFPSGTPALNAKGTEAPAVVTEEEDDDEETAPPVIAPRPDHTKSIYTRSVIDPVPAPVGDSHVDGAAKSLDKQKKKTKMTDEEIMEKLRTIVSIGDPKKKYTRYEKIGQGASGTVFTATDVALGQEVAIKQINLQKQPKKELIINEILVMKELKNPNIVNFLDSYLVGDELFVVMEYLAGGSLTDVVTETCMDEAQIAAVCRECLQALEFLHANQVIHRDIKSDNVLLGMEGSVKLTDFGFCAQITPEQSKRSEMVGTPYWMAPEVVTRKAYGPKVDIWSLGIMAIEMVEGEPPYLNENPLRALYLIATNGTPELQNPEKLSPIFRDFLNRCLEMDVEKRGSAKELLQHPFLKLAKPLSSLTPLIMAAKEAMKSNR
Chain of EPHB4 (human) (P54760 whole entry, looked up): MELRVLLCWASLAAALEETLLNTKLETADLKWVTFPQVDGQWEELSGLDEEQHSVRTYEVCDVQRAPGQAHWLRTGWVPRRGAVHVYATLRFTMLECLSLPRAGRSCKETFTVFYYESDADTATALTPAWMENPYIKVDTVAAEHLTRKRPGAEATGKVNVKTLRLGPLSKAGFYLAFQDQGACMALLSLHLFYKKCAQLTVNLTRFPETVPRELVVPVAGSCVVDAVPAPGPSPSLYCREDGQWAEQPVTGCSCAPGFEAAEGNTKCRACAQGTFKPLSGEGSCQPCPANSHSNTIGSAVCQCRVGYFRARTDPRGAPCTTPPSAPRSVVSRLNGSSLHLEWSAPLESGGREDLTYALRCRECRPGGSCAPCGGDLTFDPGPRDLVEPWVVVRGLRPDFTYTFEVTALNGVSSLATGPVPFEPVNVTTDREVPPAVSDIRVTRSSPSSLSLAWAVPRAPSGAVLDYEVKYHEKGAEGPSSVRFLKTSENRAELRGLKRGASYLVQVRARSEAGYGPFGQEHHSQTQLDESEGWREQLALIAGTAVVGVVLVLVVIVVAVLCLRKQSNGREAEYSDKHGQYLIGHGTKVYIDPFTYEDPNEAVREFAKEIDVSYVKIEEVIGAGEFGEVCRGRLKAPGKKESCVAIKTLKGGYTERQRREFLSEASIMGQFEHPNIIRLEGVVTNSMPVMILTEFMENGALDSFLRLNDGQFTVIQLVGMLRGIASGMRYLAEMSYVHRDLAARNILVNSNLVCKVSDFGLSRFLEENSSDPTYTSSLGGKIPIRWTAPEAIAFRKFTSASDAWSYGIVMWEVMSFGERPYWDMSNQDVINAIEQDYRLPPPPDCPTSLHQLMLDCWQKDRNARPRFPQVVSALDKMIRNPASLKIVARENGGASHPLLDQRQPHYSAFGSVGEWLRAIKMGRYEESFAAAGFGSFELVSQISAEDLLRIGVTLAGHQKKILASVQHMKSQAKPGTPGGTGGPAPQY
Chain of MAP2K1 (human) (Q02750 whole entry, looked up): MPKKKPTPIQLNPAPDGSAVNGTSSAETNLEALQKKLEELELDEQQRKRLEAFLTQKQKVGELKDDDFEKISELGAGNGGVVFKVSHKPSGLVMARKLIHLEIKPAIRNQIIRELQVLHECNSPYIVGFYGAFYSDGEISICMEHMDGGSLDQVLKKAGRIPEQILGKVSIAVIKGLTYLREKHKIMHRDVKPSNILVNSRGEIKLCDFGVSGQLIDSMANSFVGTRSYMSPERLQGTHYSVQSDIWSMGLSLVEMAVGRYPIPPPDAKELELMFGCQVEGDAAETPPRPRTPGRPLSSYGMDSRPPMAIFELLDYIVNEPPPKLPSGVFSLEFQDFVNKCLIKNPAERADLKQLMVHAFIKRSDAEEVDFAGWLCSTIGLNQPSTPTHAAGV
Chain of MAPK9 (human) (P45984 whole entry, looked up): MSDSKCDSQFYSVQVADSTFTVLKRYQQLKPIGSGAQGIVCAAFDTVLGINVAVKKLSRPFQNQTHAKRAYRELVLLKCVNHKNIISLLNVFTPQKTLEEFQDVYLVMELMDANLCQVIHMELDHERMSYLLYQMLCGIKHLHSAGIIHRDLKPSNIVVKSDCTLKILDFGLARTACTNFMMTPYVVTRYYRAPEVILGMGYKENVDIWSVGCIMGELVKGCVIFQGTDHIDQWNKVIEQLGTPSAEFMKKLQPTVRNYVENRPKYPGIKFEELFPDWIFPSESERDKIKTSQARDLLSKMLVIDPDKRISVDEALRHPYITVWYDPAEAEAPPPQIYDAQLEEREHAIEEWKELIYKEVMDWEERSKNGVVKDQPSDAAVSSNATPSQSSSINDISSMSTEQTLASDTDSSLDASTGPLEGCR
Chain of RPS6KA5 KD1 KD2 (human) (O75582 whole entry, looked up): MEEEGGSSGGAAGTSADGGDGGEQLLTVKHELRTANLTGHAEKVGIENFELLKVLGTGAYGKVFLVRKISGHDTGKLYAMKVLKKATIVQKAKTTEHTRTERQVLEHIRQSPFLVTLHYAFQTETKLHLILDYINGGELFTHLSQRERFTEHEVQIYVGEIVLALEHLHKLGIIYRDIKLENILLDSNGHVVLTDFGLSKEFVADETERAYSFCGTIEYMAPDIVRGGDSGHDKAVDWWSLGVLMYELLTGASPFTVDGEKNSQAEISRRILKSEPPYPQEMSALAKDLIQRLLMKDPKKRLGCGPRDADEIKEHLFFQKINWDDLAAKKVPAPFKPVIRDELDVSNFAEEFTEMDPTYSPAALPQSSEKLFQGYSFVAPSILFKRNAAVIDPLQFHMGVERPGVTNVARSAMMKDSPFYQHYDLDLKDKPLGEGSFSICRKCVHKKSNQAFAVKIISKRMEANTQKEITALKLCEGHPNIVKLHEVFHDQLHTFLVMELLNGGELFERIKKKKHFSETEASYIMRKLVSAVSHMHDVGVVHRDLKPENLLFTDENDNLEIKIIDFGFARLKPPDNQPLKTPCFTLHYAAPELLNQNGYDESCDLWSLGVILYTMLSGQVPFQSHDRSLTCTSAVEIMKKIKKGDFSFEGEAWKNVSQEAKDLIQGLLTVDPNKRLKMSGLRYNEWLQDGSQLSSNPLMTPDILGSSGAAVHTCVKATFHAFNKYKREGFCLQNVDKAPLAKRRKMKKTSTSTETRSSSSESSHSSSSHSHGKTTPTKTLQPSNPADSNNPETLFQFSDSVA
Chain of DAPK1 (human) (P53355 whole entry, looked up): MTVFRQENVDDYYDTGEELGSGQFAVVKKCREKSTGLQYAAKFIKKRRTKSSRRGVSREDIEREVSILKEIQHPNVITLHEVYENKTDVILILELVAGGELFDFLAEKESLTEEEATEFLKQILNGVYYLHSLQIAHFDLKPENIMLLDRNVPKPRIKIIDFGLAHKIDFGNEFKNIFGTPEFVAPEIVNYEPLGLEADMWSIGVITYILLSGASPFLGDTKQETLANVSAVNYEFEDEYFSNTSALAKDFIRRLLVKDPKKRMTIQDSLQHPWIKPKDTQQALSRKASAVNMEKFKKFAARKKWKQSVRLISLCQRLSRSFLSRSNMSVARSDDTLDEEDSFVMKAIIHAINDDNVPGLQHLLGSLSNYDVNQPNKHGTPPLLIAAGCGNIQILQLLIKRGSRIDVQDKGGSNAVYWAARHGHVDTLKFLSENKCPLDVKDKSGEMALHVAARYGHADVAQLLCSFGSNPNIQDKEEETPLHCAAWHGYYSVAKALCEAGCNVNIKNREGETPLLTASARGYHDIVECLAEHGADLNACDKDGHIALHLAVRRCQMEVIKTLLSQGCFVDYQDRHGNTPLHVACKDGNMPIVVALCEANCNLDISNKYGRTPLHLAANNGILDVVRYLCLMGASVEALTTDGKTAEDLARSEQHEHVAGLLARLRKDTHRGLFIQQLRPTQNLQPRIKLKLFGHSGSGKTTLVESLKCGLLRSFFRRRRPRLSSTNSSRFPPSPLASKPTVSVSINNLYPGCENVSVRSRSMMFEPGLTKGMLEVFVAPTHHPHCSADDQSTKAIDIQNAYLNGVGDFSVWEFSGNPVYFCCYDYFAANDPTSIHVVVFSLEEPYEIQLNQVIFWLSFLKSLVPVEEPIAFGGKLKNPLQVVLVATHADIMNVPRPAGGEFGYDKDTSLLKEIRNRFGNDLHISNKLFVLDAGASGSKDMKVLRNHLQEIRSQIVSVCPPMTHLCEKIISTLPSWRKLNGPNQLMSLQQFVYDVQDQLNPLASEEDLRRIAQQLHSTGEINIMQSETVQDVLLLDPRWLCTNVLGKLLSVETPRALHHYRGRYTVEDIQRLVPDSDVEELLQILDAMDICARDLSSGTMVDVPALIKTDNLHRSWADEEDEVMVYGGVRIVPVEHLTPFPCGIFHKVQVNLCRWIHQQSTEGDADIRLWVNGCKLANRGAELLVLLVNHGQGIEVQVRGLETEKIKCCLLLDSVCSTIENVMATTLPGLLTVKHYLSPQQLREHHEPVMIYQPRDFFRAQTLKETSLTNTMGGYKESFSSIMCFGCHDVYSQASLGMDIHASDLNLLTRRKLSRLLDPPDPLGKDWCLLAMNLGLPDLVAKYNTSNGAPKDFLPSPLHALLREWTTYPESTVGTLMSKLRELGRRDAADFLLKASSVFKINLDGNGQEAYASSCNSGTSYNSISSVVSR

## Cc1ccc(Sc2cnc(Nc3cccc(Br)n3)s2)cc1C(=O)N1CCN(C(=O)CN)CC1
BTK (human); compound 0.1 µM
  residual activity: 96%
BTK (human); compound 1.0 µM
  residual activity: 53%
BTK (human); compound 10.0 µM
  residual activity: 8%
CDK2 CCNA2 (human); compound 0.1 µM
  residual activity: 35%
CDK2 CCNA2 (human); compound 1.0 µM
  residual activity: 15%
CDK2 CCNA2 (human); compound 10.0 µM
  residual activity: 3%
CHEK1 (human); compound 0.1 µM
  residual activity: 54%
CHEK1 (human); compound 1.0 µM
  residual activity: 53%
CHEK1 (human); compound 10.0 µM
  residual activity: 52%
CSNK2A1 (human); compound 0.1 µM
  residual activity: 119%
CSNK2A1 (human); compound 1.0 µM
  residual activity: 104%
CSNK2A1 (human); compound 10.0 µM
  residual activity: 85%
DAPK1 (human); compound 0.1 µM
  residual activity: 99%
DAPK1 (human); compound 1.0 µM
  residual activity: 96%
DAPK1 (human); compound 10.0 µM
  residual activity: 63%
EEF2K (human); compound 0.1 µM
  residual activity: 113%
EEF2K (human); compound 1.0 µM
  residual activity: 96%
EEF2K (human); compound 10.0 µM
  residual activity: 92%
EPHA4 (human); compound 0.1 µM
  residual activity: 22%
EPHA4 (human); compound 1.0 µM
  residual activity: 29%
EPHA4 (human); compound 10.0 µM
  residual activity: 0%
EPHB1 (human); compound 0.1 µM
  residual activity: 53%
EPHB1 (human); compound 1.0 µM
  residual activity: 36%
EPHB4 (human); compound 0.1 µM
  residual activity: 15%
EPHB4 (human); compound 1.0 µM
  residual activity: 13%
EPHB4 (human); compound 10.0 µM
  residual activity: 4%
GCK (human); compound 0.1 µM
  residual activity: 101%
GCK (human); compound 1.0 µM
  residual activity: 93%
GCK (human); compound 10.0 µM
  residual activity: 33%
IKBKB (human); compound 0.1 µM
  residual activity: 107%
IKBKB (human); compound 1.0 µM
  residual activity: 92%
IKBKB (human); compound 10.0 µM
  residual activity: 84%
INSRR (human); compound 0.1 µM
  residual activity: 69%
INSRR (human); compound 1.0 µM
  residual activity: 80%
INSRR (human); compound 10.0 µM
  residual activity: 52%
MAP2K1 (human); compound 0.1 µM
  residual activity: 96%
MAP2K1 (human); compound 1.0 µM
  residual activity: 85%
MAP2K1 (human); compound 10.0 µM
  residual activity: 40%
MAP2K2 (human); compound 0.1 µM
  residual activity: 86%
MAP2K2 (human); compound 1.0 µM
  residual activity: 77%
MAP3K5 (human); compound 0.1 µM
  residual activity: 106%
MAP3K5 (human); compound 1.0 µM
  residual activity: 101%
MAP3K9 (human); compound 0.1 µM
  residual activity: 78%
MAP3K9 (human); compound 1.0 µM
  residual activity: 69%
MAP3K9 (human); compound 10.0 µM
  residual activity: 17%
MAPK9 (human); compound 0.1 µM
  residual activity: 98%
MAPK9 (human); compound 1.0 µM
  residual activity: 94%
MAPK9 (human); compound 10.0 µM
  residual activity: 54%
MAPKAPK2 (human); compound 0.1 µM
  residual activity: 98%
MAPKAPK2 (human); compound 1.0 µM
  residual activity: 86%
MAPKAPK2 (human); compound 10.0 µM
  residual activity: 80%
MARK3 (human); compound 0.1 µM
  residual activity: 103%
MARK3 (human); compound 1.0 µM
  residual activity: 89%
MARK3 (human); compound 10.0 µM
  residual activity: 57%
MARK4 (human); compound 0.1 µM
  residual activity: 101%
MARK4 (human); compound 1.0 µM
  residual activity: 118%
MARK4 (human); compound 10.0 µM
  residual activity: 43%
MKNK2 (human); compound 0.1 µM
  residual activity: 120%
MKNK2 (human); compound 1.0 µM
  residual activity: 92%
MKNK2 (human); compound 10.0 µM
  residual activity: 73%
MYLK (human); compound 0.1 µM
  residual activity: 51%
MYLK (human); compound 1.0 µM
  residual activity: 43%
MYLK (human); compound 10.0 µM
  residual activity: 5%
NEK6 (human); compound 0.1 µM
  residual activity: 103%
NEK6 (human); compound 1.0 µM
  residual activity: 101%
NEK6 (human); compound 10.0 µM
  residual activity: 85%
[1]; compound 0.1 µM
  residual activity: 44%
[1]; compound 1.0 µM
  residual activity: 44%
[1]; compound 10.0 µM
  residual activity: 16%
PAK6 (human); compound 0.1 µM
  residual activity: 71%
PAK6 (human); compound 1.0 µM
  residual activity: 72%
PAK6 (human); compound 10.0 µM
  residual activity: 27%
PIM1 (human); compound 0.1 µM
  residual activity: 54%
PIM1 (human); compound 1.0 µM
  residual activity: 49%
PIM1 (human); compound 10.0 µM
  residual activity: 11%
PIM2 (human); compound 0.1 µM
  residual activity: 94%
PIM2 (human); compound 1.0 µM
  residual activity: 92%
PIM2 (human); compound 10.0 µM
  residual activity: 77%
PIM3 (human); compound 0.1 µM
  residual activity: 53%
PIM3 (human); compound 1.0 µM
  residual activity: 72%
PIM3 (human); compound 10.0 µM
  residual activity: 21%
PKN2 (human); compound 0.1 µM
  residual activity: 80%
PKN2 (human); compound 1.0 µM
  residual activity: 78%
PKN2 (human); compound 10.0 µM
  residual activity: 32%
RPS6KA5 KD1 KD2 (human); compound 0.1 µM
  residual activity: 59%
RPS6KA5 KD1 KD2 (human); compound 1.0 µM
  residual activity: 51%
RPS6KA5 KD1 KD2 (human); compound 10.0 µM
  residual activity: 22%
[2]; compound 0.1 µM
  residual activity: 95%
[2]; compound 1.0 µM
  residual activity: 92%
[2]; compound 10.0 µM
  residual activity: 11%
SRPK1 (human); compound 0.1 µM
  residual activity: 71%
SRPK1 (human); compound 1.0 µM
  residual activity: 59%
SRPK1 (human); compound 10.0 µM
  residual activity: 11%
STK3 (human); compound 0.1 µM
  residual activity: 16%
STK3 (human); compound 1.0 µM
  residual activity: 19%
STK3 (human); compound 10.0 µM
  residual activity: 3%
TBK1 (human); compound 0.1 µM
  residual activity: 87%
TBK1 (human); compound 1.0 µM
  residual activity: 78%
TBK1 (human); compound 10.0 µM
  residual activity: 93%
TTK (human); compound 0.1 µM
  residual activity: 75%
TTK (human); compound 1.0 µM
  residual activity: 73%
TTK (human); compound 10.0 µM
  residual activity: 42%
YES1 (human); compound 0.1 µM
  residual activity: 11%
YES1 (human); compound 1.0 µM
  residual activity: 11%
YES1 (human); compound 10.0 µM
  residual activity: 6%

## NC(=O)c1ccc(-c2ccc(Oc3cncc4sc(-c5nn[nH]n5)cc34)cc2)cc1
BTK (human); compound 1.0 µM
  residual activity: 95%
BTK (human); compound 10.0 µM
  residual activity: 71%
CDK2 CCNA2 (human); compound 1.0 µM
  residual activity: 91%
CDK2 CCNA2 (human); compound 10.0 µM
  residual activity: 105%
CHEK1 (human); compound 1.0 µM
  residual activity: 79%
CHEK1 (human); compound 10.0 µM
  residual activity: 87%
CSNK2A1 (human); compound 1.0 µM
  residual activity: 30%
CSNK2A1 (human); compound 10.0 µM
  residual activity: 6%
DAPK1 (human); compound 1.0 µM
  residual activity: 88%
DAPK1 (human); compound 10.0 µM
  residual activity: 18%
EEF2K (human); compound 1.0 µM
  residual activity: 100%
EEF2K (human); compound 10.0 µM
  residual activity: 101%
EPHA4 (human); compound 1.0 µM
  residual activity: 103%
EPHA4 (human); compound 10.0 µM
  residual activity: 112%
EPHB1 (human); compound 1.0 µM
  residual activity: 95%
EPHB1 (human); compound 10.0 µM
  residual activity: 107%
EPHB4 (human); compound 1.0 µM
  residual activity: 97%
EPHB4 (human); compound 10.0 µM
  residual activity: 96%
GCK (human); compound 1.0 µM
  residual activity: 78%
GCK (human); compound 10.0 µM
  residual activity: 13%
IKBKB (human); compound 1.0 µM
  residual activity: 94%
IKBKB (human); compound 10.0 µM
  residual activity: 64%
INSRR (human); compound 1.0 µM
  residual activity: 79%
INSRR (human); compound 10.0 µM
  residual activity: 26%
MAP2K1 (human); compound 1.0 µM
  residual activity: 85%
MAP2K1 (human); compound 10.0 µM
  residual activity: 78%
MAP2K2 (human); compound 1.0 µM
  residual activity: 81%
MAP2K2 (human); compound 10.0 µM
  residual activity: 75%
MAP3K5 (human); compound 1.0 µM
  residual activity: 104%
MAP3K5 (human); compound 10.0 µM
  residual activity: 112%
MAP3K9 (human); compound 1.0 µM
  residual activity: 95%
MAP3K9 (human); compound 10.0 µM
  residual activity: 42%
MAPK9 (human); compound 1.0 µM
  residual activity: 99%
MAPK9 (human); compound 10.0 µM
  residual activity: 85%
MAPKAPK2 (human); compound 1.0 µM
  residual activity: 93%
MAPKAPK2 (human); compound 10.0 µM
  residual activity: 85%
MARK3 (human); compound 1.0 µM
  residual activity: 94%
MARK3 (human); compound 10.0 µM
  residual activity: 71%
MARK4 (human); compound 1.0 µM
  residual activity: 86%
MARK4 (human); compound 10.0 µM
  residual activity: 78%
MKNK2 (human); compound 1.0 µM
  residual activity: 94%
MKNK2 (human); compound 10.0 µM
  residual activity: 58%
MYLK (human); compound 1.0 µM
  residual activity: 86%
MYLK (human); compound 10.0 µM
  residual activity: 35%
NEK6 (human); compound 1.0 µM
  residual activity: 98%
NEK6 (human); compound 10.0 µM
  residual activity: 94%
[1]; compound 1.0 µM
  residual activity: 93%
[1]; compound 10.0 µM
  residual activity: 90%
PAK6 (human); compound 1.0 µM
  residual activity: 89%
PAK6 (human); compound 10.0 µM
  residual activity: 87%
PIM1 (human); compound 1.0 µM
  residual activity: 70%
PIM1 (human); compound 10.0 µM
  residual activity: 18%
PIM2 (human); compound 1.0 µM
  residual activity: 85%
PIM2 (human); compound 10.0 µM
  residual activity: 14%
PIM3 (human); compound 1.0 µM
  residual activity: 79%
PIM3 (human); compound 10.0 µM
  residual activity: 21%
PKN2 (human); compound 1.0 µM
  residual activity: 80%
PKN2 (human); compound 10.0 µM
  residual activity: 53%
RPS6KA5 KD1 KD2 (human); compound 1.0 µM
  residual activity: 90%
RPS6KA5 KD1 KD2 (human); compound 10.0 µM
  residual activity: 20%
[2]; compound 1.0 µM
  residual activity: 96%
[2]; compound 10.0 µM
  residual activity: 64%
SRPK1 (human); compound 1.0 µM
  residual activity: 99%
SRPK1 (human); compound 10.0 µM
  residual activity: 48%
STK3 (human); compound 1.0 µM
  residual activity: 98%
STK3 (human); compound 10.0 µM
  residual activity: 75%
TBK1 (human); compound 1.0 µM
  residual activity: 87%
TBK1 (human); compound 10.0 µM
  residual activity: 63%
TTK (human); compound 1.0 µM
  residual activity: 79%
TTK (human); compound 10.0 µM
  residual activity: 51%
YES1 (human); compound 1.0 µM
  residual activity: 91%
YES1 (human); compound 10.0 µM
  residual activity: 87%
